The values that follow come from paper PMC9603864, “Novel Class of Proteasome Inhibitors: In Silico and In Vitro Evaluation of Diverse Chloro(trifluoromethyl)aziridines” (International Journal of Molecular Sciences, 2022).

Holding throughout (type): biochemical
In assay [1] the target is T1, 20S proteasome β5 subunit (chymotrypsin-like activity) (Homo sapiens, UniProt P28074).
T1 construct: gene PSMB5; whole human 20S proteasome (Biomol); with other subunits of the 20S proteasome
T1 sequence (P28074 60-263): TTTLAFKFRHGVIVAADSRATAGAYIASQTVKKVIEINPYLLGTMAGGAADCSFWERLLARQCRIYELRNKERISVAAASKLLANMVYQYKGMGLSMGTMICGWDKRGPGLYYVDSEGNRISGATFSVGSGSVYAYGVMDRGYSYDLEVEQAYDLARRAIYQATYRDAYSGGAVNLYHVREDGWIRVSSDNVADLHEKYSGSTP
The experiment in a line: fluorometric ChT-L screening assay, % inhibition at […]. The conditions noted are these: read-out: ChT-L Activity (% Inhibition at 20 μM) ^1.

The target in assay [2] is T1, 20S proteasome β5 subunit (chymotrypsin-like activity). The experiment in a line: fluorometric ChT-L assay with Suc-LLVY-AMC, continuous; IC50 […], Ki by Cheng-Prusoff.
For assay [3] the target is unchanged. Described as above. The source holds these as a separate data set.

SMILES strings stand for the structures. Where two headings read alike, the source gives them in different places.

For the compound `N#Cc1ccc(N2CC2(Cl)C(F)(F)F)cc1` (centres unmarked) [compound 18, CTMA 18], the inhibition (commonly the share of the control response that was lost under treatment) at 20 µM in assay [1] is 37 ± 0.5%.
Turning to `FC(F)(F)C1(Cl)CN1c1ccc2cc3ccccc3cc2c1` (centres unmarked) [compound 21, CTMA 21], the affinity in assay [2] corresponds to a Ki of 1600 ± 130 nM.
Turning to `FC(F)(F)C1(Cl)CN1c1ccc(N=Nc2ccccc2)cc1` (centres unmarked) [compound 22, CTMA 22], affinity in assay [3] was put at a Ki of 1600 ± 80 nM.
Turning to `FC(F)(F)C1(Cl)CN1c1ccc(N2CCOCC2)cc1` (centres unmarked) [compound 23, CTMA 23], in assay [1], the inhibition at 20 µM is 41 ± 1.2%.
On the same count and under the same terms, the value for `O=C1CCCN1c1cccc(N2CC2(Cl)C(F)(F)F)c1` (centres unmarked) [compound 25, CTMA 25] was 34 ± 1.4%.
